Measurements as given in patent publication US20260053834A1, “COVALENT MODIFIERS OF AKT1 AND USES THEREOF” (Terremoto Biosciences, Inc., priority 2023, published 2026).

Columns and labels:
Format in all cases: binding
AKT1 E17K = target: T1, AKT1 E17K (Homo sapiens, UniProt P31749, E17K); assay: Live cell target engagement by NanoBRET competitive probe displacement, AKT1 E17K; details: transfected HEK293 cells, 2 h at 37° C., read-out: AKT1 E17K IC50: GeoMean IC50
T1 construct: expressed in transfected cells; host or cells: HEK293
T1 sequence (P31749 whole entry E17K): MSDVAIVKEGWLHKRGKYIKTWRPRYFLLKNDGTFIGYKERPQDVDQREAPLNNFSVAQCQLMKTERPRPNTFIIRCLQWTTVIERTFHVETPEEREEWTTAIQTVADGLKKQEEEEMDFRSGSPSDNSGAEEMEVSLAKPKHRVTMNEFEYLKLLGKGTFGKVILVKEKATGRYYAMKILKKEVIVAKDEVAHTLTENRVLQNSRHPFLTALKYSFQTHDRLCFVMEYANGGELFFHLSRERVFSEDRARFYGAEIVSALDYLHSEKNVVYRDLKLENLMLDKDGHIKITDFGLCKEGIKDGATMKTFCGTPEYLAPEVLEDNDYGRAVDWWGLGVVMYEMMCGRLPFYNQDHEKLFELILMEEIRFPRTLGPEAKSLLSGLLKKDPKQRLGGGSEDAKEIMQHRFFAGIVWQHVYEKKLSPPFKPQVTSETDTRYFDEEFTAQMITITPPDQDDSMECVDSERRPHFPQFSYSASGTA
Description: (§1) Determining live cell AKT1 E17K, AKT1 WT, and AKT2 target engagement by NanoBRET competitive probe displacement. Live cell target engagement assays were performed as described (Vasta, J. D. et al. Cell Chem Biol 2018, 25(11), 206-214). Briefly, HEK293 cells were transfected with plasmids encoding kinase-NanoLuciferase fusion proteins overnight. Cells were then treated with serial dilutions of compound and an ˜EC50 concentration of fluorescently-tagged ATP-competitive tracer (Promega). After incubation for 2 h at 37° C., luciferase substrate and extracellular luciferase inhibitor were added to all wells, and luminescent intensity at 460 nm and 600 nm were measured on a multimode plate-reader. The ratio of E600/E460 was calculated to give the tracer engagement signal (BRET). IC50 values were calculated by fitting BRET values to a log(inhibitor) vs. response Hill equation.

AKT1 WT = target: T2, AKT1 WT (Homo sapiens, UniProt P31749); assay: Live cell target engagement by NanoBRET competitive probe displacement, AKT1 WT; details: transfected HEK293 cells, 2 h at 37° C., read-out: AKT1 WT IC50: GeoMean IC50
T2 construct: expressed in transfected cells; host or cells: HEK293
T2 sequence (P31749 whole entry): as the sequence (P31749 whole entry E17K) above, with K17E counted along it
Description: as §1

AKT2 = target: T3, AKT2 (Homo sapiens, UniProt P31751); assay: Live cell target engagement by NanoBRET competitive probe displacement, AKT2; details: transfected HEK293 cells, 2 h at 37° C., read-out: AKT2 IC50: GeoMean IC50
T3 construct: expressed in transfected cells; host or cells: HEK293
T3 sequence (P31751 whole entry): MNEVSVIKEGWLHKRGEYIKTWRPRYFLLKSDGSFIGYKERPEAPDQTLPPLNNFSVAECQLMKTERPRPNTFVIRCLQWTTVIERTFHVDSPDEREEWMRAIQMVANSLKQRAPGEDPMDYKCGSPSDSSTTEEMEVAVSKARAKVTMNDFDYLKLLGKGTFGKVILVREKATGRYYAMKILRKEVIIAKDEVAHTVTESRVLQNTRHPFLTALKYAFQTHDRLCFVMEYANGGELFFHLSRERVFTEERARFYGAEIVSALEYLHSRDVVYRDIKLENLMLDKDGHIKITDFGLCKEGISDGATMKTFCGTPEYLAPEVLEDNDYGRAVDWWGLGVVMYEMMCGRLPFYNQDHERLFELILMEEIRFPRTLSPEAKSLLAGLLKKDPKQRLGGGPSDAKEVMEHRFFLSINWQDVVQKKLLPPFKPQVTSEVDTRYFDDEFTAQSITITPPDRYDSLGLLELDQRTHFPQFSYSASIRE
Description: as §1

An IC50 (AKT1 E17K) of 100 to 2000 nM, an IC50 (AKT1 WT) of no less than 2000 nM and an IC50 (AKT2) of no less than 2000 nM were found for `Nc1ncccc1-c1nc2ccc(-c3ccccc3)nc2n1-c1ccc2c(c1)CCC2NCCc1ccc(O)c(C=O)c1` (stereo not drawn) [Example 2, 5-(2-((5-(2-(2-aminopyridin-3-yl)-5-phenyl-3H-imidazo[4,5-b]pyridin-3-yl)-2,3-dihydro-1H-inden-1-yl)amino)ethyl)-2-hydroxybenzaldehyde] in this work.

An IC50 (AKT1 E17K) of 10 to 100 nM, an IC50 (AKT1 WT) of 100 to 2000 nM and an IC50 (AKT2) of 100 to 2000 nM were found for `Nc1ncccc1-c1nc2ccc(-c3ccccc3)nc2n1-c1ccc2c(c1)CC[C@@H]2NCCc1ccc(C=O)c(O)c1` [Example 4, 4-(2-{[(1S)-5-[2-(2-aminopyridin-3-yl)-5-phenylimidazo[4,5-b]pyridin-3-yl]-2,3-dihydro-1H-inden-1-yl]amino}ethyl)-2-hydroxybenzaldehyde] in this work.

An IC50 (AKT1 E17K) of 10 to 100 nM, an IC50 (AKT1 WT) of 100 to 2000 nM and an IC50 (AKT2) of 100 to 2000 nM were found for `Nc1ncccc1-c1nc2ccc(-c3ccccc3)nc2n1-c1ccc2c(c1)CCC2NCCc1ccc(C=O)c(O)c1` (stereo not drawn) [Example 1, 4-(2-((5-(2-(2-aminopyridin-3-yl)-5-phenyl-3H-imidazo[4,5-b]pyridin-3-yl)-2,3-dihydro-1H-inden-1-yl)amino)ethyl)-2-hydroxybenzaldehyde] in this work.

An IC50 (AKT1 E17K) of 10 to 100 nM, an IC50 (AKT1 WT) of 10 to 100 nM and an IC50 (AKT2) of 10 to 100 nM were found for `Nc1ncccc1-c1nc2ccc(-n3cccn3)nc2n1-c1ccc2c(c1)CC[C@@H]2NC(=O)c1ccc(F)c(C=O)c1` [Example 191, (S)—N-(5-(2-(2-aminopyridin-3-yl)-5-(1H-pyrazol-1-yl)-3H-imidazo[4,5-b]pyridin-3-yl)-2,3-dihydro-1H-inden-1-yl)-4-fluoro-3-formylbenzamide] in this work.

An IC50 (AKT1 E17K) of 10 to 100 nM, an IC50 (AKT1 WT) of 100 to 2000 nM and an IC50 (AKT2) of 100 to 2000 nM were found for `Nc1ncccc1-c1nc2ccc(-n3cccn3)nc2n1-c1ccc2c(c1)CC(O)C2NC(=O)c1ccc(O)c(C=O)c1` (stereo not drawn) [Example 251, N-(5-(2-(2-aminopyridin-3-yl)-5-(1H-pyrazol-1-yl)-3H-imidazo[4,5-b]pyridin-3-yl)-2-hydroxy-2,3-dihydro-1H-inden-1-yl)-3-formyl-4-hydroxybenzamide] in this work.

An IC50 (AKT1 E17K) of 10 to 100 nM, an IC50 (AKT1 WT) of 10 to 100 nM and an IC50 (AKT2) of 100 to 2000 nM were found for `Nc1ncccc1-c1nc2ccc(-n3cccn3)nc2n1-c1ccc2c(c1)CC[C@@H]2NC(=O)c1cc(C=O)c(F)cc1F` [Example 188, (S)—N-(5-(2-(2-aminopyridin-3-yl)-5-(1H-pyrazol-1-yl)-3H-imidazo[4,5-b]pyridin-3-yl)-2,3-dihydro-1H-inden-1-yl)-2,4-difluoro-5-formylbenzamide] in this work.

An IC50 (AKT1 E17K) of 10 to 100 nM, an IC50 (AKT1 WT) of 10 to 100 nM and an IC50 (AKT2) of 100 to 2000 nM were found for `Nc1ncccc1-c1nc2ccc(-c3ccccc3)nc2n1-c1ccc2c(c1)CCC2NC(=O)Cc1ccc(C=O)c(O)c1` (stereo not drawn) [Example 6, N-(5-(2-(2-aminopyridin-3-yl)-5-phenyl-3H-imidazo[4,5-b]pyridin-3-yl)-2,3-dihydro-1H-inden-1-yl)-2-(4-formyl-3-hydroxyphenyl)acetamide] in this work.

An IC50 (AKT1 E17K) of 100 to 2000 nM, an IC50 (AKT1 WT) of no less than 2000 nM and an IC50 (AKT2) of no less than 2000 nM were found for `Nc1ncccc1-c1nc2ccc(-c3ccccc3)nc2n1-c1ccc2c(c1)CC[C@H]2NC(=O)c1ccc(O)c(C=O)c1` [Example 7, N-[(1R)-5-[2-(2-aminopyridin-3-yl)-5-phenylimidazo[4,5-b]pyridin-3-yl]-2,3-dihydro-1H-inden-1-yl]-3-formyl-4-hydroxybenzamide] in this work.

An IC50 (AKT1 E17K) of 10 to 100 nM, an IC50 (AKT1 WT) of 100 to 2000 nM and an IC50 (AKT2) of no less than 2000 nM were found for `Nc1ncccc1-c1nc2ccc(-c3ccccc3)nc2n1-c1ccc2c(c1)CC[C@H]2NCCc1ccc(C=O)c(O)c1` [Example 3, 4-(2-{[(1R)-5-[2-(2-aminopyridin-3-yl)-5-phenylimidazo[4,5-b]pyridin-3-yl]-2,3-dihydro-1H-inden-1-yl]amino}ethyl)-2-hydroxybenzaldehyde] in this work.

An IC50 (AKT1 E17K) of 10 to 100 nM, an IC50 (AKT1 WT) of 10 to 100 nM and an IC50 (AKT2) of 100 to 2000 nM were found for `Nc1ncccc1-c1nc2ccc(-c3ccccc3)nc2n1-c1ccc2c(c1)CC[C@@H]2NC(=O)Cc1ccc(C=O)c(O)c1Cl` [Example 9, N-[(1S)-5-[2-(2-aminopyridin-3-yl)-5-phenylimidazo[4,5-b]pyridin-3-yl]-2,3-dihydro-1H-inden-1-yl]-2-(2-chloro-4-formyl-3-hydroxyphenyl)acetamide] in this work.
